Test results from patent publication US20220312767A1, “PYRIDAZINE COMPOUNDS AND HERBICIDES” (Nippon Soda Co., Ltd., priority 2019, published 2022).

What was measured:
[1] = system: Digitaria ciliaris; test: Soil treatment test (Test Example 2); type: in vivo; conditions: four weeks after
Protocol: (§1) A test emulsion was prepared by the same method as that in Test example 1.
(§2) 70 cm^2 pots were filled with soil, and then seeds of Digitaria ciliaris and Amaranthus retroflexus were sown on the surface layer of each of the pots, respectively, followed by lightly covering with soil. On the next day, the above-mentioned test emulsion was diluted to obtain a predetermined active ingredient amount, and then was sprayed onto the soil surface at a spray volume of 2860 L per hectare using a small sprayer.
(§3) Four weeks after, the fresh grass mass at an aerial part on an untreated area or a treated area was measured per weed, and the herbicidal ratio was calculated by the following calculation formula.
(§4) Herbicidal ratio (%)=(the fresh grass mass at an aerial part on untreated area−the fresh grass mass at an aerial part on treated area)/(the fresh grass mass at an aerial part on untreated area)×100
(§5) The compounds A-1 and A-4 were sprayed at a spray amount of 63 g or 31 g per hectare, respectively.
(§6) In addition, the following compounds (A) to (C) disclosed in Patent Document 1 were sprayed in a similar manner.

[2] = system: Amaranthus retroflexus; test: Soil treatment test (Test Example 2); type: in vivo; conditions: four weeks after
Protocol: as §1, §2, §3, §4, §5, §6

[3] = system: Avena sativa; test: Foliage treatment test (Test Example 1), foliage spray; type: in vivo; conditions: 250 g per hectare, three weeks after, fresh grass mass of aerial part vs untreated
Protocol: (§7) POA allylphenyl ether (4.1 parts by mass), POE-POP glycol (1 part by mass), POE sorbitanlaurate (0.8 parts by mass), glycerin (2.6 parts by mass), dimethylformamide (65.9 parts by mass), N-methylpyrolidone (5.1 parts by mass), cyclohexanone (15.4 parts by mass), and aromatic hydrocarbon (5.1 parts by mass) were mixed and dissolved to prepare an emulsion. The compound according to the present invention (4 mg) was dissolved in the emulsion (100 μL) to prepare a test emulsion. The term “POA” means “polyoxyalkylene”, the term “POE” means “polyoxyethylene”, and the term “POP” means “polyoxypropylene”.
(§8) 150 cm^2 pots were filled with soil, and then seeds of Avena sativa, Matricaria chamomilla, Setaria faberi, Digitaria ciliaris, Abutilon theophrasti and Amaranthus retroflexus were sown on the surface layer of each of the pots, respectively, followed by lightly covering with soil. Then, the seeds were grown in a greenhouse. When each plant was grown to obtain a grass height of 2 cm to 4 cm, the above-mentioned test emulsion diluted to obtain a predetermined active ingredient amount was sprayed onto the leaves and stems at a spray volume of 250 L per hectare using a small sprayer.
(§9) Three weeks after, the fresh grass mass at an aerial part on an untreated area or a treated area was measured per weed, and the herbicidal ratio was calculated by the following calculation formula.
as §4

[4] = system: Digitaria ciliaris; test: as above; type: in vivo; conditions: 250 g per hectare, three weeks after, fresh grass mass of aerial part vs untreated
Protocol: as §7, §8, §9, §4

[5] = system: Matricaria chamomilla; test: as above; type: in vivo; conditions: 250 g per hectare, three weeks after, fresh grass mass of aerial part vs untreated
Protocol: as §7, §8, §9, §4

[6] = system: Amaranthus retroflexus; test: as above; type: in vivo; conditions: 250 g per hectare, three weeks after, fresh grass mass of aerial part vs untreated
Protocol: as §7, §8, §9, §4

[7] = system: Setaria faberi; test: as above; type: in vivo; conditions: 250 g per hectare, three weeks after, fresh grass mass of aerial part vs untreated
Protocol: as §7, §8, §9, §4

Structure (SMILES) | Herbicidal ratio Digitaria ciliaris ([1]; spray amount 31 g/ha) [%] | Herbicidal ratio Digitaria ciliaris ([1]; spray amount 63 g/ha) [%] | Herbicidal ratio Amaranthus retroflexus ([2]; spray amount 31 g/ha) [%] | Herbicidal ratio Amaranthus retroflexus ([2]; spray amount 63 g/ha) [%] | Herbicidal ratio against Avena sativa [3] [%] | Herbicidal ratio against Digitaria ciliaris [4] [%] | Herbicidal ratio against Matricaria chamomilla [5] [%] | Herbicidal ratio against Amaranthus retroflexus [6] [%] | Herbicidal ratio against Setaria faberi [7] [%] | melting point [°C]
Cn1ncc(-c2ccc(C(F)(F)F)cc2S(C)(=O)=O)c(O)c1=O [(A)] | 0 | 0 | 0 | 0 |  |  |  |  |  | 
CC(=O)Oc1c(-c2ccc(C(F)(F)F)cc2S(C)(=O)=O)cnn(C)c1=O [(B)] | 0 | 30 | 0 | 0 |  |  |  |  |  | 
Cc1ccc(S(=O)(=O)Oc2c(-c3ccc(C(F)(F)F)cc3S(C)(=O)=O)cnn(C)c2=O)cc1 [(C)] | 40 | 70 | 0 | 0 |  |  |  |  |  | 
CC(OC(=O)C(C)C)Oc1c(-c2ccc(C(F)(F)F)cc2S(C)(=O)=O)cnn(C)c1=O (stereo not shown) [Compound A-1] | 100 | 100 | 100 | 100 | 100 | 100 | 100 | 100 | 100 | 
COC(=O)OC(C)Oc1c(-c2ccc(S(C)(=O)=O)cc2Cl)cnn(C)c1=O (stereo not shown) [Compound A-2] |  |  |  |  | 100 |  | 100 |  |  | 
COC(=O)OCOc1c(-c2ccc(C(F)(F)F)cc2S(C)(=O)=O)cnn(C)c1=O [Compound A-3] |  |  |  |  | 100 | 100 | 100 | 100 | 100 | 
COC(=O)OC(C)Oc1c(-c2ccc(C(F)(F)F)cc2S(C)(=O)=O)cnn(C)c1=O (stereo not shown) [Compound A-4, methyl (1-((2-methyl-5-(2-(methylsulfonyl)-4-(trifluoromethyl)phenyl)-3-oxo-2,3-dihydropyridazin-4-yl)oxy)ethyl) carbonate] |  | 100 |  | 100 | 100 | 100 | 100 | 100 |  | 173 to 176
CC(C)C(=O)OCOc1c(-c2ccc(C(F)(F)F)cc2S(C)(=O)=O)cnn(C)c1=O [Compound A-5] |  |  |  |  | 100 | 100 | 100 | 100 | 100 | 
COC(=O)OC(C)Oc1c(-c2ccc(S(C)(=O)=O)c(C3=NOCC3)c2Cl)cnn(C)c1=O (stereo not shown) [Compound A-7] |  |  |  |  | 100 | 100 | 100 | 100 | 100 | 
COCCOc1c(S(C)(=O)=O)ccc(-c2cnn(C)c(=O)c2OC(C)OC(=O)OC)c1Cl (stereo not shown) [Compound A-8] |  |  |  |  |  | 100 | 100 | 100 |  | 
COC(=O)OC(C)Oc1c(-c2ccc(C(F)(F)F)c(NC(=O)C3CC3)c2C)cnn(C)c1=O (stereo not shown) [Compound A-9] |  |  |  |  | 100 |  | 100 | 100 | 100 | 
